Values after ≈ are worked out from the molar mass of the structure shown. Like-named read-outs stand apart in the source and are kept apart here.
Tests used:
Type in all cases: in vivo
[1] = system: common mosquito (Culex pipiens pallens); assay: Test Example 1: emergence of common mosquito from last instar larvae; conditions: 3.5 ppm in water; twenty last instar larvae; feeding up to emergence; two replications
Protocol: (§1) Anyone of Compound Nos. 1 to 12 (10 parts), polyoxyethylene styrylphenyl ether (14 parts), calcium dodecylbenzenesulfonate (6 parts), xylene (35 parts) and dimethylformamide (35 parts) are mixed well to make an emulsifiable concentrate preparation.
An emulsifiable concentrate preparation formulated as in Formulation Example 2 was diluted with water to make a dilution containing the test compound in a concentration of 3.5 ppm. The dilution (100 ml) was charged in a plastic cup of 180 ml volume, and twenty last instar larvae of common mosquito (Culex pipiens pallens) were released therein. Feeding was continued up to emergence, and the rate of emergence was observed (two replications).

[2] = system: rice stem borer (Chilo suppressalis); assay: Test Example 3: insecticidal test on rice stem borer ten-day old larvae, artificial diet; conditions: 192 h, eight days, two replications
Protocol: as §1
An emulsifiable concentrate preparation formulated as in Formulation Example 2 was diluted with water to make a designed dilution of the test compound. Five grams of artificial diet placed into a polyethylene-made cup of 5.5 cm in diameter was impregnated with said dilution (1 ml). Ten-day old larvae (10 insects) of rice stem borer (Chilo suppressalis) were released therein. Eight days thereafter, observation was made to determine the number of death, and the LC50 value was calculated therefrom (two replications).

[3] = system: tobacco cutworm (Spodoptera litura); assay: Test Example 2: insecticidal test on tobacco cutworm fourth larvae, artificial diet; conditions: 144 h
Protocol: as §1
An emulsifiable concentrate preparation formulated as in Formulation Example 2 was diluted with water to make a designed dilution of the test compound. An artificial diet (13 g) for tobacco cutworm (Spodoptera litura) was impregnated with said dilution (2 ml) and placed into a polyethylene-made cup of 11 cm in diameter. Fourth larvae (10 insects) of tobacco cutworm were released therein. Six days thereafter, observation was made to determine the number of death, and the LC50 value (i.e. lethal concentration to 50% death) was calculated therefrom (two replications).

[4] = system: housefly (Musca domestica); assay: Test Example 4: emergence of housefly from nits reared on treated artificial culture; conditions: 10 ppm dilution (10,000 fold, 28 ml) in artificial culture; fifty nits, cultivated until pupation
Protocol: as §1
Powdered animal feed (2 g) was thoroughly mixed with bran (14 g). An emulsifiable concentrate preparation formulated as in Formulation Example 2 was diluted with water to make a 10,000 fold dilution (corresponding to 10 ppm; 28 ml) and added to the above mixture. The resultant mixture was stirred well to make an artificial culture for housefly. Fifty nits of housefly (Musca domestica) were cultivated therein until their pupation. The obtained pupae were placed into a plastic cup, and the rate of emergence was observed.

[5] = lethal concentration to 50% death, fourth larvae, artificial diet, six days, two replications, read-out: LC50

Row | Structure (SMILES) | Rate of emergence [1] [%] | LC50 [2] [µg/mL] | LC50 [3, 5] [µg/mL] | Rate of emergence [4] [%] | LC50 [3] [µg/mL]
1 | Cc1cc(NC(=O)NC(=O)c2ccccc2Cl)cc(C)c1Oc1cc(F)cc(F)c1 [Compound 4] | 0 | 10 (≈ 23.2 µM) | 1.5 (≈ 3.48 µM) | – | –
2 | Cc1cc(NC(=O)NC(=O)c2c(F)cccc2Cl)cc(C)c1Oc1cc(F)cc(F)c1 [Compound 11] | 0 | – | 1.6 (≈ 3.56 µM) | – | –
3 | O=C(NC(=O)c1c(F)cccc1F)Nc1cc(Cl)c(Oc2c(F)c(F)c(F)c(F)c2F)c(Cl)c1 [Compound 3] | 0 | – | 2.3 (≈ 4.36 µM) | 0 | –
4 | O=C(NC(=O)c1c(F)cccc1F)Nc1ccc(Cl)cc1 [A, Diflubenzuron, reference compound] | – | – | – | – | 4.4 (≈ 14.2 µM)
5 | O=C(NC(=O)c1c(F)cccc1F)Nc1cc(Cl)c(Oc2cc(F)cc(F)c2)c(Cl)c1 [Compound 2, N-2,6-difluorobenzoyl-N'-4-(3,5-difluorophenoxy)-3,5-dichlorophenylurea] | 0 | 12 (≈ 25.4 µM) | 2.5 (≈ 5.28 µM) | 0 | –
6 | O=C(NC(=O)c1ccccc1Cl)Nc1cc(Cl)c(Oc2c(F)c(F)c(F)c(F)c2F)c(Cl)c1 [Compound 6] | 0 | – | 2.7 (≈ 5.14 µM) | 0 | –
7 | O=C(NC(=O)c1ccccc1Cl)Nc1cc(Cl)c(Oc2c(Cl)c(Cl)c(Cl)c(Cl)c2Cl)c(Cl)c1 [Compound 7] | 0 | – | – | – | –
8 | O=C(NC(=O)c1c(F)cccc1F)Nc1ccc(Oc2cc(Cl)cc(Cl)c2)cc1 [C, 3-(2,6-difluorobenzoyl)-1-[4-(3,5-dichlorophenoxy)phenyl]urea, reference compound] | – | – | 6.5 (≈ 14.9 µM) | – | –
9 | O=C(NC(=O)c1c(F)cccc1F)Nc1cc(Cl)c(Oc2c(Cl)c(Cl)c(Cl)c(Cl)c2Cl)c(Cl)c1 [Compound 8] | 0 | 15 (≈ 24.6 µM) | – | – | –
10 | Cc1cc(NC(=O)NC(=O)c2c(F)cccc2F)cc(C)c1Oc1cc(F)cc(F)c1 [Compound 1, N-2,6-difluorobenzoyl-N'-4-(3,5-difluorophenoxy)-3,5-dimethylphenylurea] | 0 | – | 0.5 (≈ 1.16 µM) | 2 | –
11 | Cc1cc(NC(=O)NC(=O)c2ccccc2Cl)cc(C)c1Oc1c(F)c(F)c(F)c(F)c1F [Compound 10] | 0 | – | 1.2 (≈ 2.48 µM) | – | –
12 | Cc1cc(NC(=O)NC(=O)c2c(F)cccc2F)cc(C)c1Oc1c(F)c(F)c(F)c(F)c1F [Compound 9] | 0 | – | 0.64 (≈ 1.32 µM) | – | –
13 | Cc1cc(NC(=O)NC(=O)c2c(F)cccc2Cl)cc(C)c1Oc1c(F)c(F)c(F)c(F)c1F [Compound 12] | 0 | – | – | – | –
14 | CNC(=O)ON=C(C)SC [B, Methomyl, reference compound] | – | – | – | – | 8 (≈ 49.3 µM)
15 | O=C(NC(=O)c1ccccc1Cl)Nc1cc(Cl)c(Oc2cc(F)cc(F)c2)c(Cl)c1 [Compound 5] | 0 | – | – | – | –
